In patent publication US7875607B2, “7,8-bicycloakyl-chroman derivatives” (Ampere Life Sciences, Inc., priority 2004, dated 2011) one finds EC50 and IC50 data, which are given here for five compounds.

In general, pEC50 refers to the negative decadic logarithm of the EC50, by convention in mol/L.

Each structure is given as a SMILES string. pEC50, pIC50: −log10 of the molar value.

The test system of experiment [1] is LTB4 release from MPRO cell line. Kind of experiment: LTB4-cell assay. In kind it is cell-based. Conditions: Mus musculus; differentiated MPRO cells, 1 μM A23187, 1 hour; read-out: EC50, inhibition of LTB4. As to the method: This procedure was used for measuring the release of the leukotriene LTB4 from a neutrophil cell line using a competitive ELISA technique.
A mouse promyelocytic cell line (MPRO) was used in this assay. These cells are committed immature neutrophils that can be differentiated into mature neutrophils by treatment with 10 μM all-trans retinoic acid for 72 hours
Following 72 hours of differentiation, cells were stimulated with 1 μM of a calcium ionophore (A23187) in the presence or absence of test compound or vehicle for 1 hour at 37° C. After this time, supernatant was removed from the cells and the LTB4 levels were determined following manufacturer's instructions, using a Leukotriene B4 EIA kit from Cayman (Cat # 520111)
The negative controls were media samples from differentiated but unstimulated cells.
The compounds were screened at 5 concentrations in quadruplicate starting at 10 μM

The target in experiment [2] is T1, porcine leukocyte 12/15-lipoxygenase (Sus scrofa, UniProt P16469).
T1 sequence (P16469 1-663): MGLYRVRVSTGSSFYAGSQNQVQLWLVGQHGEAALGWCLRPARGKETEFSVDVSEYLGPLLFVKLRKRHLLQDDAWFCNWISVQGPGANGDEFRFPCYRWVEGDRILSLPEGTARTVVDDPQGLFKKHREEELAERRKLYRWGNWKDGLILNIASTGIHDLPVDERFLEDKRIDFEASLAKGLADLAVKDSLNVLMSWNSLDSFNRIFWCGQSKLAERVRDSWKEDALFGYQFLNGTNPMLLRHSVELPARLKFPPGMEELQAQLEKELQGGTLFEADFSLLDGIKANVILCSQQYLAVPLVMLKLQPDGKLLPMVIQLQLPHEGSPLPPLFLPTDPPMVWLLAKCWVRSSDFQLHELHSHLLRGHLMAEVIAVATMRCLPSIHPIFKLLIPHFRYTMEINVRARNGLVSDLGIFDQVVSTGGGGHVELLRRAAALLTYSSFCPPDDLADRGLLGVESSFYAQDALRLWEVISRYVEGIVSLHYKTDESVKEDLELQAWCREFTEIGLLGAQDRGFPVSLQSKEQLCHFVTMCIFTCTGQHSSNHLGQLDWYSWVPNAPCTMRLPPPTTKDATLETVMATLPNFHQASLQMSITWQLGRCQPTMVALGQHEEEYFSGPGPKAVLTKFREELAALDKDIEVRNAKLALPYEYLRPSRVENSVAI
The experiment can be described thus: 12/15-Lipoxygenase enzyme assay. Type of experiment: biochemical. Conditions: 70 μM arachidonic acid, pH 7.4; read-out: IC50, inhibition of 12/15-Lipoxygenase. As to the method: This procedure was used for measuring the enzymatic activity of porcine leukocyte 12/15-lipoxygenase using a calorimetric method based on the ferric oxidation of xylenol orange.
(§1) Porcine Leukocyte 12/15-lipoxygenase (Cayman Cat # 60300) was used in this assay. Test compound and/or vehicle was added to 1.3U 12/15-lipoxygenase in 50 mM Tris-HCl buffer, pH 7.4. The reaction was initiated by addition of 70 μM arachidonic acid in Tris-HCl buffer, pH 7.4, and terminated after a 10 minute incubation at room temperature by addition of FOX reagent (25 mM sulphuric acid, 100 μM xylenol orange, 100 μM iron (II) sulphate, methanol:water 9:1). The yellow color of acidified xylenol orange was converted to a blue color by the lipid hydroperoxide-mediated oxidation of Fe^2+ ions and the interaction of the resulting Fe^3+ ions with the dye. The complex was allowed to form during a 1 hour incubation at room temperature with shaking. Absorbance of the Fe^3+ complex was then measured at […] using a spectrophotometer.
(§2) Negative controls contained enzyme during the incubation step but substrate was not added until after the FOX reagent.
Compounds are screened at 5 concentrations in triplicate starting at 10 μM

The target of experiment [3] is T2, human recombinant 5-lipoxygenase (Homo sapiens, UniProt P09917).
T2 construct: purchased Cayman 60402
T2 sequence (P09917 1-674): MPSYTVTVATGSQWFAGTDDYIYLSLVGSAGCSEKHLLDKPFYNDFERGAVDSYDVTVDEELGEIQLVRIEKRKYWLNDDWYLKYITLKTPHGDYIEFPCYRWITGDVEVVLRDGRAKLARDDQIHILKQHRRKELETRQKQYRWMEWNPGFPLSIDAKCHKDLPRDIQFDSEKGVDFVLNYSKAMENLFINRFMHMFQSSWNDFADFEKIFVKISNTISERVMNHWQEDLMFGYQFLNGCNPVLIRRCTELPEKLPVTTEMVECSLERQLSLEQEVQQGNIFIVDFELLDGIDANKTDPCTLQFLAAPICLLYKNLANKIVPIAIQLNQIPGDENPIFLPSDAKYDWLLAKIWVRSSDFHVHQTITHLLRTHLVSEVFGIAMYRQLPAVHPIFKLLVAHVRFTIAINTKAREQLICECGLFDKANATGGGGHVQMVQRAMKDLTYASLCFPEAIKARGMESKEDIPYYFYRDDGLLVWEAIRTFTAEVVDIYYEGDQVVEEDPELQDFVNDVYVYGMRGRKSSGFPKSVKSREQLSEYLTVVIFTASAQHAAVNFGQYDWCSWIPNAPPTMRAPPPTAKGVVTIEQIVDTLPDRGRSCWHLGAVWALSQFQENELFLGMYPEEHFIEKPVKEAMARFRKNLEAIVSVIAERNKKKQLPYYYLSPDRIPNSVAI
The experiment can be described thus: 5-Lipoxygenase enzyme assay. Type of experiment: biochemical. To be noted: 70 μM arachidonic acid, pH 7.4. The procedure: This procedure was used for measuring the enzymatic activity of human recombinant 5-lipoxygenase using a […] method based on the ferric oxidation of xylenol orange.
as §1, with “Human recombinant 5-lipoxygenase” for “Porcine Leukocyte 12/15-lipoxygenase”, “60402)” for “60300)”, “The test” for “Test”, “0.5U 5-lipoxygenase” for “1.3U 12/15-lipoxygenase”
as §2
Compounds were screened at 5 concentrations in triplicate starting at 10 μM

Experiment [4] has as its system dopaminergic neuronal cell line. Kind of experiment: High glutamate-induced oxidative stress assay (HGOS). Conditions: Mus musculus; 30 mM glutamate, 16 hrs; read-out: EC50, protection against HGOS cell injury and cell death. In kind it is cell-based. The text has this:
Protection against redox stress can be further evaluated in cell culture using high glutamate induced oxidative stress (HGOS) in mouse dopaminergic cell lines. The cytotoxic effect of glutamate is not due to excitotoxicity, as this cell line is devoid of inotropic glutamate receptors. Rather, the glutamate-induced toxicity of dopaminergic cells is associated with an inhibition of cystine transport which subsequently leads to depletion of intracellular glutathione (GSH) levels (Murphy T. H., et al. Neuron 2, 1547-1558, 1989), activation of neuronal 12-lipoxygenase (Li, Y. et al., Neuron 19, 453-463, 1997), increased ROS production (Tan S. et al., J. Cell Biol. 141, 1423-1432, 1998) and elevated intracellular Ca^2+ (Li, Y. et al., see supra). Some molecules were measured for their ability to protect cells against glutamate-induced stress and the assay is detailed in Examples.
This procedure was used to induce high glutamate-induced oxidative stress (HGOS) in a dopaminergic neuronal cell line. Using this assay the potency and efficacy of test articles against HGOS neuronal cell injury and cell death was established in a high throughput manner.
The cells were seeded into 96-well plates at a density of 2000 per well and left to grow for 72 hours in a 33° C. incubator with 5% CO2 in air atmosphere. The passage number of the cells for each assay experiment were no later than p11 in order to minimize experimental variation.
All compounds were dissolved in DMEM-No Glu containing 1 mM glucose, 30 mM glutamate and 1×Pen/Strep. DMEM-No Glu with 1 mM glucose and 1×P/S was used as the negative control, DMEM-No Glucose with 1 mM glucose, […] was used as a positive control and 100 μM Glutathione was added to the positive control as a standard. All of the procedures for this involving the making and dilution of compounds were performed using aseptic conditions and with minimal light.
The plates were removed from the incubator and examined under the microscope for morphological appearance and density. Using an aseptic technique and an 8-channel aspirator the media was carefully removed from the cells and replaced with 200 μl of 1×HBSS. This was done as quickly as possible to prevent the cells drying out. The plates were then placed in the humidified 37° C. incubators of the Biomek 2000 Side Loader. Four plates were washed at a time so as to minimize the time that the cells were sitting in 1×HBSS prior to addition of the compound test solution.
The Beckman Biomek workstations were used to load the compounds and controls from the mother plates onto the cell plates that were prewashed with HBSS under sterile conditions. The plates were incubated in the upper HTS incubator at 37° C. in 5% CO2 for exactly 16 hrs. The following day, using the Beckman Biomek workstations, the plates were removed from the incubator. Using Cell Tracker Addition, the compounds were removed from the plates, washed once with […] of pre-warmed 1×HBSS and then 100 μL of 5 μM Cell Tracker Green was added to each well. The plates were incubated at 37° C. for 30 min to allow the dye to enter the cell and be cleaved by the esterases. After washing the cells twice with prewarmed 1×HBSS, the plates were read with the 485 excitation; 538 emission filter pair on a Fluoroskan.

Experiment [5] relates to LTB4 production in heparinized whole blood. The experiment can be described thus: Inhibition of LTB4 production in blood. In kind it is cell-based, rat or mouse. To be noted: 20 μM A23187, read-out: EC50, protection against LTB4. As to the method:
The blood was collected in heparinized tubes or syringes to prevent clotting. Heparin was at 20 USP U/ml. About 3-5 ml of blood was collected per rat and about 0.5-0.75 ml per mouse. This assay required 200 μl/data point, therefore a 96 well plate requires 20 ml.
The Calcium ionophore A23187 was prepared as a 10 mM stock solution in DMSO and the test agent is prepared in DMSO so that <1 μl DMSO will be added to the well
200 μl blood per well were added in a round bottom 96 well clear plastic 96 well plate followed by the test agent. After 10 minutes incubation at 37° C., 5 μl of Calcium ionophore A23187 for a final concentration of 20 μM were added and mixed, and further incubated for 30 min. After 1000×g centrifugation to pellet blood cells, 20 μl plasma was carefully removed.
20 μl plasma were added to 80 μl methanol to precipitate protein and mixed. This was further incubated 10 min. at room temperature and centrifuged at 1000×g to pellet protein.
Following manufacturer's instructions, the commercially available EIA kit was used to subsequently measure the LTB4 production in the samples. The LTB4 levels produced in the vehicle control sample were then compared to those in which the test compound had been added. From this a percent inhibition of LTB4 production by each concentration of test compound was calculated and the IC50 for inhibition of LTB4 production for each test compound was determined.

With `CC1(CCCSc2ccncc2)CCc2cc(O)c3c(c2O1)C1CCC3C1` (stereo not drawn) [2-Methyl-2-[3-(pyridin-4-ylsulfanyl)-propyl]-3,4,7,8,9,10-hexahydro-7,10-methano-2H-benzo[h]chromen-6-ol], in experiment [1], the negative logarithm of the EC50 (pEC50) is ≥ 5.30. For the same compound, the pIC50 in experiment [2] was ≥ 5.00; in experiment [3], ≥ 5.30.

Take `CC1(c2cccs2)CCc2cc(O)c3c(c2O1)C1CCC3C1` (stereo not drawn) [2-methyl-2-thiophen-2-yl-3,4,7,8,9,10-hexahydro-7,10-methano-2H-benzo[h]chromen-6-ol]: the figures for the negative logarithm of the EC50 (pEC50) in experiment [4], in experiment [1] and in experiment [5] were ≥ 6.00, ≥ 5.30 and ≥ 5.00, respectively. Also, the pIC50 in experiment [2] was ≥ 5.00.

Turning to `CC1(c2nccs2)CCc2cc(O)c3c(c2O1)C1CCC3C1` (stereo not drawn) [2-Methyl-2-thiazol-2-yl-3,4,7,8,9,10-hexahydro-7,10-methano-2H-benzo[h]chromen-6-ol], the negative-log EC50 (pEC50) in experiment [1] was ≥ 5.30. The pIC50 in experiment [2] is ≥ 5.00.

Take `CC1(C)CCc2cc(O)c3c(c2O1)C1CCC3C1` (stereo not drawn) [2,2-Dimethyl-3,4,7,8,9,10-hexahydro-7,10-methano-2H-benzo[h]chromen-6-ol]: the figures for the pEC50 in experiment [1] and in experiment [5] were ≥ 5.30 and ≥ 5.00, respectively. In addition, the pIC50 in experiment [2] was ≥ 5.00; in experiment [3], ≥ 5.30.

As to `Cc1c(O)c2c(c3c1CCC(C)(C)O3)C1CCC2CC1` [2,2,5-Trimethyl-3,4,7,8,9,10-hexahydro-7,10-ethano-2H-benzo[h]chromen-6-ol], in experiment [1], the pEC50 was ≥ 5.30. Besides, the pIC50 in experiment [2] was ≥ 5.00.
